From patent US20260249027A1, “METERED DOSE INHALERS AND HIGH-DOSE SUSPENSIONS” (Kindeva Drug Delivery L.P., priority 2023, published 2026)

Assays:
Assay type in all cases: physicochemical
[1] = Through life dose consistency of sodium cromoglycate pMDI suspensions (USP <601>, apparatus A)
Protocol: (§1) In the following examples, dose consistency was determined by in vitro measurement of single actuation dose content at start, middle and end of pMDI unit life in line with U.S. Pharmacopeia (USP)<601>, using a flow rate of 28.3 L/min and apparatus A. Aerodynamic particle size distribution of the pMDI suspension aerosols was measured at start of unit life in line with U.S. Pharmacopeia (USP)<601> using a Next Generation impactor without pre-separator (apparatus 6) and a flow rate of 30 L/min.
(§2) A first set of suspensions included no ethanol. A second set of suspensions included 2% ethanol by weight.
In total, ten suspension pMDI formulations were prepared in triplicate with sufficient fill weight to provide 60 actuations. Each suspension was filled into Kindeva FEP coated canisters, crimped with a Kindeva 50-μL valve. Each pMDI unit was sonicated for at least 10 minutes to disperse the suspended drug and tested with a Kindeva actuator having an exit orifice diameter (EOD) of 0.4 mm.

[2] = Aerodynamic particle size measurement of sodium cromoglycate pMDI suspensions (Next Generation impactor)
Description: (§3) In general, aerosols with mass median aerodynamic diameters (MMAD) of at least 1 μm but less than 5 μm in size are suitable for effective deep lung deposition for therapeutic effect. Herein, fine particle fraction (FPF) is defined as the percentage of the ex-actuator delivered API having a MMAD of less than 5 μm when tested in vitro. Herein, “ex-actuator” delivered dose is used to describe the amount of API delivered past the actuator of a pMDI. Therefore, an aerosol with a high FPF is typically suitable for deep lung deposition.
as §1, §2
In total, ten suspension pMDI formulations were prepared in triplicate with sufficient fill weight to provide 60 actuations. Each suspension was filled into Kindeva FEP coated canisters, crimped with a Kindeva 50-μL valve. Each pMDI unit was sonicated for at least 10 minutes to disperse the suspended drug and tested with a Kindeva actuator having an exit orifice diameter (EOD) of 0.4 mm
(§4) The mass median aerodynamic diameter (MMAD) and fine particle fraction (FPF) of each pMDI unit were measured by Next Generation cascade impaction (N=3) for each pMDI suspension.

[3] = Aerodynamic particle size measurement of salbutamol sulfate pMDI suspensions (Next Generation impactor)
Description: as §3, §1
In total, six suspension pMDI formulations were prepared in triplicate with sufficient fill weight to provide 60 actuations. Each suspension was filled into Kindeva FEP coated canisters, crimped with a Kindeva 50-μL valve. Each pMDI unit was sonicated for at least 10 minutes to disperse the suspended drug and tested with a Kindeva actuator having an exit orifice diameter (EOD) of 0.4 mm.
as §4

[4] = nominal ex-valve 0.5 mg/act, HFA-152a
[5] = nominal ex-valve 0.5 mg/act, HFA-152a/2% EtOH (w/w)
[6] = nominal ex-valve 0.5 mg/act, HFO-1234ze(E)
[7] = nominal ex-valve 0.5 mg/act, HFO-1234ze(E)/2% EtOH (w/w)
[8] = nominal ex-valve 1.0 mg/act, HFA-152a
[9] = nominal ex-valve 1.0 mg/act, HFA-152a/2% EtOH (w/w)
[10] = nominal ex-valve 1.0 mg/act, HFO-1234ze(E)
[11] = nominal ex-valve 1.0 mg/act, HFO-1234ze(E)/2% EtOH (w/w)
[12] = nominal ex-valve 2.0 mg/act, HFA-152a
[13] = nominal ex-valve 2.0 mg/act, HFO-1234ze(E)

Question: With `O=C(O)c1cc(=O)c2c(OCC(O)COc3cccc4oc(C(=O)O)cc(=O)c34)cccc2o1` [sodium cromoglycate] as the compound, how does the “effect of addition of ethanol on through unit life ex-actuator delivered dose consistency” value ([1]; 2% ethanol by weight, HFA-152a or HFO-1234ze(E)) read?
Answer: Its value is “did not always substantially improve”.

Question: And the “through unit life ex-actuator delivered dose consistency” value ([1]; HFA-152a or HFO-1234ze(E) with and without 2% ethanol by weight)?
Answer: Its value is “relatively consistent”.

Question: What about the “MoL mean delivered dose” value [1, 4] of the same compound?
Answer: The value was 363.8 μg/act.

Question: What about the “SoL mean delivered dose” value [1, 4] of the same compound?
Answer: Its value is 611.8 μg/act.

Question: And the “TL mean delivered dose” value [1, 4]?
Answer: The value was 427.8 μg/act.

Question: What about the “EoL mean delivered dose” value [1, 5] of the same compound?
Answer: The value was 313.6 μg/act.

Question: What about the “MoL mean delivered dose” value [1, 5] of the same compound?
Answer: The value was 331.6 μg/act.

Question: And the “SoL mean delivered dose” value [1, 5]?
Answer: The value was 675.8 μg/act.

Question: What about the “TL mean delivered dose” value [1, 5] of the same compound?
Answer: The value was 440.3 μg/act.

Question: And the “EoL mean delivered dose” value [1, 6]?
Answer: Its value is 158.7 μg/act.

Question: And the “MoL mean delivered dose” value [1, 6]?
Answer: The value was 354.1 μg/act.

Question: What about the “SoL mean delivered dose” value [1, 6] of the same compound?
Answer: The value was 419.4 μg/act.

Question: What about the “TL mean delivered dose” value [1, 6] of the same compound?
Answer: The value was 310.7 μg/act.

Question: And the “EoL mean delivered dose” value [1, 7]?
Answer: Its value is 315.4 μg/act.

Question: What about the “MoL mean delivered dose” value [1, 7] of the same compound?
Answer: Its value is 332.8 μg/act.

Question: And the “SoL mean delivered dose” value [1, 7]?
Answer: The value was 940.2 μg/act.

Question: And the “TL mean delivered dose” value [1, 7]?
Answer: Its value is 529.5 μg/act.

Question: And the “EoL mean delivered dose” value [1, 8]?
Answer: The value was 618.4 μg/act.

Question: And the “MoL mean delivered dose” value [1, 8]?
Answer: Its value is 931.3 μg/act.

Question: And the “SoL mean delivered dose” value [1, 8]?
Answer: Its value is 950.3 μg/act.

Question: What about the “TL mean delivered dose” value [1, 8] of the same compound?
Answer: Its value is 833.3 μg/act.

Question: What about the “EoL mean delivered dose” value [1, 9] of the same compound?
Answer: The value was 847.0 μg/act.

Question: And the “MoL mean delivered dose” value [1, 9]?
Answer: The value was 906.3 μg/act.

Question: And the “SoL mean delivered dose” value [1, 9]?
Answer: The value was 1027.9 μg/act.

Question: What about the “TL mean delivered dose” value [1, 9] of the same compound?
Answer: Its value is 927.0 μg/act.

Question: What about the “EoL mean delivered dose” value [1, 10] of the same compound?
Answer: Its value is 695.5 μg/act.

Question: What about the “MoL mean delivered dose” value [1, 10] of the same compound?
Answer: Its value is 784.8 μg/act.

Question: What about the “SoL mean delivered dose” value [1, 10] of the same compound?
Answer: Its value is 967.3 μg/act.

Question: And the “TL mean delivered dose” value [1, 10]?
Answer: The value was 815.9 μg/act.

Question: What about the “EoL mean delivered dose” value [1, 11] of the same compound?
Answer: The value was 735.1 μg/act.

Question: What about the “MoL mean delivered dose” value [1, 11] of the same compound?
Answer: The value was 917.0 μg/act.

Question: What about the “SoL mean delivered dose” value [1, 11] of the same compound?
Answer: The value was 876.4 μg/act.

Question: What about the “TL mean delivered dose” value [1, 11] of the same compound?
Answer: The value was 842.9 μg/act.

Question: And the “EoL mean delivered dose” value [1, 12]?
Answer: Its value is 1694.4 μg/act.

Question: What about the “MoL mean delivered dose” value [1, 12] of the same compound?
Answer: The value was 1590.1 μg/act.

Question: What about the “SoL mean delivered dose” value [1, 12] of the same compound?
Answer: The value was 1782.4 μg/act.

Question: What about the “TL mean delivered dose” value [1, 12] of the same compound?
Answer: The value was 1689.0 μg/act.

Question: What about the “EoL mean delivered dose” value [1, 13] of the same compound?
Answer: The value was 119.8 μg/act.

Question: And the “MoL mean delivered dose” value [1, 13]?
Answer: The value was 879.1 μg/act.

Question: And the “SoL mean delivered dose” value [1, 13]?
Answer: Its value is 2009.3 μg/act.

Question: What about the “TL mean delivered dose” value [1, 13] of the same compound?
Answer: Its value is 1255.0 μg/act.

Question: And the “MMAD values of aerosols, suitability” value ([2]; HFA-152a or HFO-1234ze(E), with and without ethanol, in-vitro)?
Answer: The value was “in an appropriate respirable range”.

Question: And the “FPF and MMAD without ethanol compared with corresponding suspensions with 2% ethanol by weight” value ([2]; HFA-152a or HFO-1234ze(E), all nominal doses)?
Answer: The value was “consistently produced greater FPFs and smaller MMADs”.

Question: What about the “Mean FPF” value [2, 4] of the same compound?
Answer: The value was 33.0%.

Question: What about the “Mean MMAD” value [2, 4] of the same compound?
Answer: The value was 3.59 μm.

Question: And the “Mean FPF” value [2, 5]?
Answer: Its value is 29.5%.

Question: What about the “Mean MMAD” value [2, 5] of the same compound?
Answer: Its value is 3.92 μm.

Question: What about the “Mean FPF” value [2, 6] of the same compound?
Answer: The value was 41.3%.

Question: And the “Mean MMAD” value [2, 6]?
Answer: Its value is 3.41 μm.

Question: And the “Mean FPF” value [2, 7]?
Answer: The value was 34.1%.

Question: And the “Mean MMAD” value [2, 7]?
Answer: Its value is 3.77 μm.

Question: What about the “Mean FPF” value [2, 8] of the same compound?
Answer: Its value is 28.2%.

Question: What about the “Mean MMAD” value [2, 8] of the same compound?
Answer: Its value is 3.85 μm.

Question: And the “Mean FPF” value [2, 9]?
Answer: The value was 25.2%.

Question: What about the “Mean MMAD” value [2, 9] of the same compound?
Answer: Its value is 4.38 μm.

Question: And the “Mean FPF” value [2, 10]?
Answer: Its value is 34.7%.

Question: And the “Mean MMAD” value [2, 10]?
Answer: The value was 3.72 μm.

Question: And the “Mean FPF” value [2, 11]?
Answer: Its value is 30.9%.

Question: And the “Mean MMAD” value [2, 11]?
Answer: The value was 4.13 μm.

Question: What about the “Mean FPF” value [2, 12] of the same compound?
Answer: Its value is 24.7%.

Question: What about the “Mean MMAD” value [2, 12] of the same compound?
Answer: Its value is 4.39 μm.

Question: What about the “Mean FPF” value [2, 13] of the same compound?
Answer: The value was 30.7%.

Question: And the “Mean MMAD” value [2, 13]?
Answer: Its value is 4.23 μm.

Question: What about the “FPF and MMAD in HFO-1234ze(E) compared with corresponding suspensions in HFA-152a” value ([2]; with or without ethanol) of the same compound?
Answer: The value was “consistently produced greater FPFs and generally smaller MMADs”.

Question: For salbutamol sulfate, which “MMAD values of aerosols, suitability” value ([3]; HFA-152a or HFO-1234ze(E), in-vitro) is on record?
Answer: The value was “in an appropriate respirable range”.

Question: And the “FPF and MMAD in HFO-1234ze(E) compared with corresponding suspensions in HFA-152a” value ([3]; no ethanol)?
Answer: Its value is “consistently produced greater FPFs and smaller MMADs”.

Question: And the “Mean FPF” value [3, 4]?
Answer: Its value is 45.6%.

Question: What about the “Mean MMAD” value [3, 4] of the same compound?
Answer: Its value is 2.98 μm.

Question: And the “Mean FPF” value [3, 6]?
Answer: The value was 57.0%.

Question: And the “Mean MMAD” value [3, 6]?
Answer: Its value is 2.98 μm.

Question: What about the “Mean FPF” value [3, 8] of the same compound?
Answer: Its value is 40.8%.

Question: What about the “Mean MMAD” value [3, 8] of the same compound?
Answer: The value was 3.30 μm.

Question: What about the “Mean FPF” value [3, 10] of the same compound?
Answer: Its value is 52.4%.

Question: And the “Mean MMAD” value [3, 10]?
Answer: The value was 3.12 μm.

Question: What about the “Mean FPF” value [3, 12] of the same compound?
Answer: The value was 30.3%.

Question: What about the “Mean MMAD” value [3, 12] of the same compound?
Answer: Its value is 3.92 μm.

Question: What about the “Mean FPF” value [3, 13] of the same compound?
Answer: The value was 36.4%.

Question: What about the “Mean MMAD” value [3, 13] of the same compound?
Answer: Its value is 3.67 μm.
